# Tested on: K98450-129-R-PDC complex spheroid growth, percent test/control
# Assay: Anticancer human tumor K98450-129-R-PDC patient-derived colon adenocarcinoma cell line growth inhibition [RAS]
# Conditions: second compound 0.01 µM; first compound 0.316 µM; hits give low values
# In short: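 Agents were tested in combination matrices in half-log decrements from a top concentration at or near clinical Cmax (10 microM if undetermined). Targets were multi-cell spheroids of tumour lines plus HUVEC and MSC stromal cells.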
# 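Note: luminescence used as a proxy for viable cell amount; spheroids exposed to agents for seven days before the viability readout.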
row,Structure (SMILES),"viability, T/C [%]"
1,CCN1CCN(Cc2ccc(Nc3ncc(F)c(-c4cc(F)c5nc(C)n(C(C)C)c5c4)n3)nc2)CC1 + C=CC(=O)N1CCN(c2nc(OCC3CCCN3C)nc3c(F)c(-c4nc(N)cc(C)c4C(F)(F)F)c(Cl)cc23)C(C)C1,42.3
2,C[C@@H](NC(=O)c1ncnc(N)c1Cl)c1ncc(C(=O)Nc2cc(C(F)(F)F)c(Cl)cn2)s1 + C=CC(=O)N1CCN(c2nc(OCC3CCCN3C)nc3c(F)c(-c4nc(N)cc(C)c4C(F)(F)F)c(Cl)cc23)C(C)C1,89.5

# Same assay, conditions: second compound 0.01 µM; first compound 1 µM; hits give low values
row,Structure (SMILES),"viability, T/C [%]"
1,CC(C)NCC(C(=O)N1CCN(c2ncnc3c2C(C)CC3O)CC1)c1ccc(Cl)cc1 (configuration not stated) + C=CC(=O)N1CCN(c2nc(OCC3CCCN3C)nc3c(F)c(-c4nc(N)cc(C)c4C(F)(F)F)c(Cl)cc23)C(C)C1,84.6
2,CC1(O)CCCC1n1c(=O)c(C(F)F)cc2cnc(NC3CCN(S(C)(=O)=O)CC3)nc21 (configuration not stated) + C=CC(=O)N1CCN(c2nc(OCC3CCCN3C)nc3c(F)c(-c4nc(N)cc(C)c4C(F)(F)F)c(Cl)cc23)C(C)C1,65.5
3,CCN1CCN(Cc2ccc(Nc3ncc(F)c(-c4cc(F)c5nc(C)n(C(C)C)c5c4)n3)nc2)CC1 + C=CC(=O)N1CCN(c2nc(OCC3CCCN3C)nc3c(F)c(-c4nc(N)cc(C)c4C(F)(F)F)c(Cl)cc23)C(C)C1,36.2
4,C[C@@H](NC(=O)c1ncnc(N)c1Cl)c1ncc(C(=O)Nc2cc(C(F)(F)F)c(Cl)cn2)s1 + C=CC(=O)N1CCN(c2nc(OCC3CCCN3C)nc3c(F)c(-c4nc(N)cc(C)c4C(F)(F)F)c(Cl)cc23)C(C)C1,97.4

# Same assay, conditions: second compound 0.01 µM; first compound 3.16 µM; hits give low values
row,Structure (SMILES),"viability, T/C [%]"
1,CC(C)NCC(C(=O)N1CCN(c2ncnc3c2C(C)CC3O)CC1)c1ccc(Cl)cc1 (configuration not stated) + C=CC(=O)N1CCN(c2nc(OCC3CCCN3C)nc3c(F)c(-c4nc(N)cc(C)c4C(F)(F)F)c(Cl)cc23)C(C)C1,83.8
2,CC1(O)CCCC1n1c(=O)c(C(F)F)cc2cnc(NC3CCN(S(C)(=O)=O)CC3)nc21 (configuration not stated) + C=CC(=O)N1CCN(c2nc(OCC3CCCN3C)nc3c(F)c(-c4nc(N)cc(C)c4C(F)(F)F)c(Cl)cc23)C(C)C1,45
3,C[C@@H](NC(=O)c1ncnc(N)c1Cl)c1ncc(C(=O)Nc2cc(C(F)(F)F)c(Cl)cn2)s1 + C=CC(=O)N1CCN(c2nc(OCC3CCCN3C)nc3c(F)c(-c4nc(N)cc(C)c4C(F)(F)F)c(Cl)cc23)C(C)C1,94.3

# Same assay, conditions: second compound 0.01 µM; first compound 10 µM; hits give low values
row,Structure (SMILES),"viability, T/C [%]"
1,CC(C)NCC(C(=O)N1CCN(c2ncnc3c2C(C)CC3O)CC1)c1ccc(Cl)cc1 (configuration not stated) + C=CC(=O)N1CCN(c2nc(OCC3CCCN3C)nc3c(F)c(-c4nc(N)cc(C)c4C(F)(F)F)c(Cl)cc23)C(C)C1,85.3
2,CC1(O)CCCC1n1c(=O)c(C(F)F)cc2cnc(NC3CCN(S(C)(=O)=O)CC3)nc21 (configuration not stated) + C=CC(=O)N1CCN(c2nc(OCC3CCCN3C)nc3c(F)c(-c4nc(N)cc(C)c4C(F)(F)F)c(Cl)cc23)C(C)C1,41.2
3,C[C@@H](NC(=O)c1ncnc(N)c1Cl)c1ncc(C(=O)Nc2cc(C(F)(F)F)c(Cl)cn2)s1 + C=CC(=O)N1CCN(c2nc(OCC3CCCN3C)nc3c(F)c(-c4nc(N)cc(C)c4C(F)(F)F)c(Cl)cc23)C(C)C1,80.1

# Same assay, conditions: second compound 0.0316 µM; first compound 0.000316 µM; hits give low values
row,Structure (SMILES),"viability, T/C [%]"
1,CC(C)n1nc(-c2ccc3oc(N)nc3c2)c2c(N)ncnc21 + C=CC(=O)N1CCN(c2nc(OCC3CCCN3C)nc3c(F)c(-c4nc(N)cc(C)c4C(F)(F)F)c(Cl)cc23)C(C)C1,70.2

# Same assay, conditions: second compound 0.0316 µM; first compound 0.001 µM; hits give low values
row,Structure (SMILES),"viability, T/C [%]"
1,CC(C)n1nc(-c2ccc3oc(N)nc3c2)c2c(N)ncnc21 + C=CC(=O)N1CCN(c2nc(OCC3CCCN3C)nc3c(F)c(-c4nc(N)cc(C)c4C(F)(F)F)c(Cl)cc23)C(C)C1,58.8

# Same assay, conditions: second compound 0.0316 µM; first compound 0.00316 µM; hits give low values
row,Structure (SMILES),"viability, T/C [%]"
1,CC(C)n1nc(-c2ccc3oc(N)nc3c2)c2c(N)ncnc21 + C=CC(=O)N1CCN(c2nc(OCC3CCCN3C)nc3c(F)c(-c4nc(N)cc(C)c4C(F)(F)F)c(Cl)cc23)C(C)C1,62.3
2,CCN1CCN(Cc2ccc(Nc3ncc(F)c(-c4cc(F)c5nc(C)n(C(C)C)c5c4)n3)nc2)CC1 + C=CC(=O)N1CCN(c2nc(OCC3CCCN3C)nc3c(F)c(-c4nc(N)cc(C)c4C(F)(F)F)c(Cl)cc23)C(C)C1,73.3

# Same assay, conditions: second compound 0.0316 µM; first compound 0.01 µM; hits give low values
row,Structure (SMILES),"viability, T/C [%]"
1,CC(C)n1nc(-c2ccc3oc(N)nc3c2)c2c(N)ncnc21 + C=CC(=O)N1CCN(c2nc(OCC3CCCN3C)nc3c(F)c(-c4nc(N)cc(C)c4C(F)(F)F)c(Cl)cc23)C(C)C1,52.3
2,CCN1CCN(Cc2ccc(Nc3ncc(F)c(-c4cc(F)c5nc(C)n(C(C)C)c5c4)n3)nc2)CC1 + C=CC(=O)N1CCN(c2nc(OCC3CCCN3C)nc3c(F)c(-c4nc(N)cc(C)c4C(F)(F)F)c(Cl)cc23)C(C)C1,68.3

# Same assay, conditions: second compound 0.0316 µM; first compound 0.0316 µM; hits give low values
row,Structure (SMILES),"viability, T/C [%]"
1,CC(C)NCC(C(=O)N1CCN(c2ncnc3c2C(C)CC3O)CC1)c1ccc(Cl)cc1 (configuration not stated) + C=CC(=O)N1CCN(c2nc(OCC3CCCN3C)nc3c(F)c(-c4nc(N)cc(C)c4C(F)(F)F)c(Cl)cc23)C(C)C1,70
2,CC(C)n1nc(-c2ccc3oc(N)nc3c2)c2c(N)ncnc21 + C=CC(=O)N1CCN(c2nc(OCC3CCCN3C)nc3c(F)c(-c4nc(N)cc(C)c4C(F)(F)F)c(Cl)cc23)C(C)C1,47.1
3,CC1(O)CCCC1n1c(=O)c(C(F)F)cc2cnc(NC3CCN(S(C)(=O)=O)CC3)nc21 (configuration not stated) + C=CC(=O)N1CCN(c2nc(OCC3CCCN3C)nc3c(F)c(-c4nc(N)cc(C)c4C(F)(F)F)c(Cl)cc23)C(C)C1,74.9
4,CCN1CCN(Cc2ccc(Nc3ncc(F)c(-c4cc(F)c5nc(C)n(C(C)C)c5c4)n3)nc2)CC1 + C=CC(=O)N1CCN(c2nc(OCC3CCCN3C)nc3c(F)c(-c4nc(N)cc(C)c4C(F)(F)F)c(Cl)cc23)C(C)C1,62.5
5,C[C@@H](NC(=O)c1ncnc(N)c1Cl)c1ncc(C(=O)Nc2cc(C(F)(F)F)c(Cl)cn2)s1 + C=CC(=O)N1CCN(c2nc(OCC3CCCN3C)nc3c(F)c(-c4nc(N)cc(C)c4C(F)(F)F)c(Cl)cc23)C(C)C1,76.3

# Same assay, conditions: second compound 0.0316 µM; first compound 0.1 µM; hits give low values
row,Structure (SMILES),"viability, T/C [%]"
1,CC(C)NCC(C(=O)N1CCN(c2ncnc3c2C(C)CC3O)CC1)c1ccc(Cl)cc1 (configuration not stated) + C=CC(=O)N1CCN(c2nc(OCC3CCCN3C)nc3c(F)c(-c4nc(N)cc(C)c4C(F)(F)F)c(Cl)cc23)C(C)C1,63.7
2,CC(C)n1nc(-c2ccc3oc(N)nc3c2)c2c(N)ncnc21 + C=CC(=O)N1CCN(c2nc(OCC3CCCN3C)nc3c(F)c(-c4nc(N)cc(C)c4C(F)(F)F)c(Cl)cc23)C(C)C1,40.5
3,CC1(O)CCCC1n1c(=O)c(C(F)F)cc2cnc(NC3CCN(S(C)(=O)=O)CC3)nc21 (configuration not stated) + C=CC(=O)N1CCN(c2nc(OCC3CCCN3C)nc3c(F)c(-c4nc(N)cc(C)c4C(F)(F)F)c(Cl)cc23)C(C)C1,70.2
4,CCN1CCN(Cc2ccc(Nc3ncc(F)c(-c4cc(F)c5nc(C)n(C(C)C)c5c4)n3)nc2)CC1 + C=CC(=O)N1CCN(c2nc(OCC3CCCN3C)nc3c(F)c(-c4nc(N)cc(C)c4C(F)(F)F)c(Cl)cc23)C(C)C1,43.2

# From PubChem BioAssay AID2060891 (Molecular Pharmacology Branch, DTP, NCI, 2025)
